Assay results: paper PMC12365235, “Molecular mechanisms of thiazide-like diuretics-mediated inhibition of the human Na-Cl cotransporter” (Nature Communications, 2025)
Entries after “also recorded” stand apart in the source; their conditions may differ.

Tests used:
[1] = set-up: method as in PMID 354839; details: chlorthalidone dose 2- to 4-fold over the currently recommended level; cited from earlier work
hNCC(V229M) = experiment: 125I- uptake assay, hNCC(V229M) variant; type: cell-based, human; details: V229M polymorphism
Method: (§1) HEK293S cell lines, cultured in 293 Freestyle medium (Life Technologies; plus 10% fetal bovine serum), stably expressing hNCC and its variants were generated following published protocols. Cells were transfected using Lipofectamine 3000 (Invitrogen) with a pSBbi-RP-based plasmid containing hNCC or its variants and the SB100X vector. Puromycin (2 μg/mL; Gemini Bio-Products) was used for selection of stable cell lines.
To prepare for the uptake experiment, cells were plated at 0.5 × 10^6 cells/well in 24-well plates one day in advance. To activate NCC, cells were treated with a chloride-free hypotonic solution composed of 67.5 mM sodium-, 2.5 mM potassium-, 0.25 mM magnesium-, and 0.25 mM calcium-gluconate, as well as 7.5 mM HEPES pH 7.4 (buffered using Tris) at 37 °C for 10 min[72]. After the activation step, the experiments were carried out at room temperature. Ten minutes before the start of ^125I^− uptake, 70 μM Bumetanide (Thermo Scientific Chemicals) and 100 μM 4,4′-diisothiocyanatostilbene-2,2′-disulfonic acid (DIDS; Sigma) were added to suppress background iodide uptake activity. Indicated thiazide diuretics were also added to the indicated concentrations 10 min before the start of ^125I^− uptake. […] Cells lysed using 1% sodium dodecyl sulfate (SDS) were analyzed by scintillation counting. […]

hNCC(H234N) = biological target: T1, hNCC(H234N) (Homo sapiens, UniProt P55017, H234N); experiment: 125I- uptake assay, hNCC(H234N) variant; type: cell-based; details: 100 μM polythiazide
T1 construct: expressed in transfected cells
T1 sequence (P55017 1-1021 H234N): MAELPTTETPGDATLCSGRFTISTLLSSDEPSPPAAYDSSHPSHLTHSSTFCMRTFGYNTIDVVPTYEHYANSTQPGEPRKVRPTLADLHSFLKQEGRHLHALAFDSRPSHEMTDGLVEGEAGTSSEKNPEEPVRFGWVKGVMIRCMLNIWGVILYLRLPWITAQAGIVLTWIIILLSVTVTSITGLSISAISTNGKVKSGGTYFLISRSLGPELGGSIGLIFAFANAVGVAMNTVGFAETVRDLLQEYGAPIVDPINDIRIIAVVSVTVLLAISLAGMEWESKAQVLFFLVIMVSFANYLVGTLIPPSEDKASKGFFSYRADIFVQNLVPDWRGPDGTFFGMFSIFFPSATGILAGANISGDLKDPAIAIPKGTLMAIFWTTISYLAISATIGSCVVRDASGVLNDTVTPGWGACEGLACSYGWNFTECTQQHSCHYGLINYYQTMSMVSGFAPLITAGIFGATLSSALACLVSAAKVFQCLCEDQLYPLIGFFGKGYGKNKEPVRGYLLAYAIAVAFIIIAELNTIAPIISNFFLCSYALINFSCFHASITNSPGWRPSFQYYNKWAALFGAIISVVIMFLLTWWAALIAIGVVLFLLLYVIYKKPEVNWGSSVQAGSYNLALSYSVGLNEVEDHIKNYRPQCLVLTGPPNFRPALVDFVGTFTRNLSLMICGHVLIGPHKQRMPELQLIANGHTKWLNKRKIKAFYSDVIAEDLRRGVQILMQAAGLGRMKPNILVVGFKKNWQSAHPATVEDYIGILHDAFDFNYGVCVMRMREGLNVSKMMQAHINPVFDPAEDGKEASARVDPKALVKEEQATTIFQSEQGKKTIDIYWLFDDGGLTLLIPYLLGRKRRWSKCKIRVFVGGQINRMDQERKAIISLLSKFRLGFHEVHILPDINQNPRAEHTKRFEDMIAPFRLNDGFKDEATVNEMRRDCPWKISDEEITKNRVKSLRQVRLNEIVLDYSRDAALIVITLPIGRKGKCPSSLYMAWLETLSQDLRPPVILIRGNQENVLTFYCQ
Method: as §1
To prepare for the uptake experiment, cells were plated at 0.5 × 10^6 cells/well in 24-well plates one day in advance. To activate NCC, cells were treated with a chloride-free hypotonic solution composed of 67.5 mM sodium-, 2.5 mM potassium-, 0.25 mM magnesium-, and 0.25 mM calcium-gluconate, as well as 7.5 mM HEPES pH 7.4 (buffered using Tris) at 37 °C for 10 min[72]. After the activation step, the experiments were carried out at room temperature. Ten minutes before the start of ^125I^− uptake, 70 μM Bumetanide (Thermo Scientific Chemicals) and 100 μM 4,4′-diisothiocyanatostilbene-2,2′-disulfonic acid (DIDS; Sigma) were added to suppress background iodide uptake activity. Indicated thiazide diuretics were also added to the indicated concentrations 10 min before the start of ^125I^− uptake. […] Cells lysed using 1% sodium dodecyl sulfate (SDS) were analyzed by scintillation counting.

Structure (SMILES) | serum glucose and uric acid [1] | fold reduction of sensitivity relative to hNCC(WT) (hNCC(V229M)) | inhibition of transport activity (hNCC(H234N))
NS(=O)(=O)c1cc(C2(O)NC(=O)c3ccccc32)ccc1Cl (stereo not drawn) [chlorthalidone] | elevated levels of serum glucose and uric acid |  | 
CN1C(CSCC(F)(F)F)Nc2cc(Cl)c(S(N)(=O)=O)cc2S1(=O)=O (stereo not drawn) [polythiazide] |  | ~ 5 fold | fully inhibited; also recorded: completely inhibited
